Measurements: US9085576B2 (AMGEN INC., priority 2013, dated 2015)

Assays:
BACE = BACE (Homo sapiens (Human), UniProt P56817); test: In vitro BACE cell-based assay (Aβ40 in conditioned medium, sandwich ELISA)
Cathepsin D (Cat D) = Cathepsin D (Cat D) (Homo sapiens (Human), UniProt P07339); test: In vitro enzymatic Cathepsin D (Cat D) FRET assay; assay type: biochemical; conditions: read-out: CatD IC50
[1] = molecular target: Beta Secretase enzyme (BACE) (Homo sapiens (Human), UniProt P56817); test: In vitro enzymatic BACE FRET assay; assay type: biochemical; conditions: read-out: BACE1 Enzyme assay IC50
Beta Secretase enzyme (BACE), sequence (P56817 46-501): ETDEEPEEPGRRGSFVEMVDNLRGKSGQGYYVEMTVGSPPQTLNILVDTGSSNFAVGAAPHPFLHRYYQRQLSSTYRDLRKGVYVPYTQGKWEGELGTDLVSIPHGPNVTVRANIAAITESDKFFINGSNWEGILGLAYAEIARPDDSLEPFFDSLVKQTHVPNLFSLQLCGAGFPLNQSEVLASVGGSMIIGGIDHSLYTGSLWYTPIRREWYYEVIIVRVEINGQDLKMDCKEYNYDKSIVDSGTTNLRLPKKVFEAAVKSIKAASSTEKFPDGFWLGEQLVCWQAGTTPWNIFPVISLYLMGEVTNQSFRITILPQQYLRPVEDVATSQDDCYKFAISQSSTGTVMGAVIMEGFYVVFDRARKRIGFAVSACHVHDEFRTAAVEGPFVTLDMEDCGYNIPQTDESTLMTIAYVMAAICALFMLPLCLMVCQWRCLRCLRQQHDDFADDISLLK

Cathepsin D (Cat D), sequence (P07339 65-412, species assumed): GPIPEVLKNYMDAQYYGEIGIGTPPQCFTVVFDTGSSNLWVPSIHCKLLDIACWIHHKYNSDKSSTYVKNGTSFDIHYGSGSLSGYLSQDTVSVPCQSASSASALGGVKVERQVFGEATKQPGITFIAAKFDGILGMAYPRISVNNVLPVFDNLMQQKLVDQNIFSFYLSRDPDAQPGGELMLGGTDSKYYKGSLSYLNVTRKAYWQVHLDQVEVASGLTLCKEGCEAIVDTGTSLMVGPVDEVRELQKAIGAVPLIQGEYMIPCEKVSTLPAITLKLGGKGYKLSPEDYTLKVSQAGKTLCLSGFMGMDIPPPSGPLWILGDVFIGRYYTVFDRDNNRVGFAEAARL
BACE, sequence (P56817 46-501, species assumed): as the sequence (P56817 46-501) above

Compound | IC50 (BACE) | IC50 (Cathepsin D (Cat D)) | IC50 [1]
C[C@H](C#N)Oc1ccc(C(=O)Nc2ccc(F)c([C@@]3(C(F)F)N=C(N)O[C@@H]4C[C@@H]43)c2)nc1 (mixture of isomers) [Example 259] | 0.473 µM | 668 µM | 0.659 µM
NC1=N[C@@](CF)(c2cc(NC(=O)c3ccc(Cl)cn3)cc(F)c2F)[C@@H]2C[C@@H]2O1 [Example 32, N-(3-((1 S,5R,6S)-3-amino-5-(fluoromethyl)-2-oxa-4-azabicyclo[4.1.0]hept-3-en-5-yl)-4,5-difluorophenyl)-5-chloropicolinamide] | 0.232 µM | 1020 µM | 1.22 µM
COc1ccc(C(=O)Nc2ccc(F)c([C@@]3(CF)N=C(N)O[C@@H]4C[C@@H]43)c2F)nc1 [Example 79, N-(3-((1R,5S,6R)-3-amino-5-(fluoromethyl)-2-oxa-4-azabicyclo[4.1.0]hept-3-en-5-yl)-2,4-difluorophenyl)-5-methoxypicolinamide] | 0.12 µM | 942 µM | 3.04 µM
N#Cc1ccc(C(=O)Nc2ccc(F)c([C@@]3(C(F)F)N=C(N)O[C@@H]4C[C@@H]43)n2)nc1 [Example 331, N-(6-((1R,5S,6R)-3-amino-5-(difluoromethyl)-2-oxa-4-azabicyclo[4.1.0]hept-3-en-5-yl)-5-fluoropyridin-2-yl)-5-cyanopicolinamide] | > 15.6 µM | 1510 µM | 26.7 µM
Cc1cc(C#N)cnc1C(=O)Nc1cc(F)c(F)c([C@@]2(CF)N=C(N)O[C@@H]3C[C@@H]32)c1 (stereo in doubt) [Example 50] | > 15.6 µM | 1750 µM | 26.6 µM
N#Cc1cnc2c(Nc3ccc(Cl)c([C@@]4(CF)N=C(N)O[C@@H]5C[C@@H]54)c3)ncc(F)c2c1 [Example 363, 8-((3-((1R,5S,6R)-3-amino-5-(fluoromethyl)-2-oxa-4-azabicyclo[4.1.0]hept-3-en-5-yl)-4-chlorophenyl)amino)-5-fluoro-1,7-naphthyridine-3-carbonitrile] | 0.13 µM | > 44.4 µM | 0.0682 µM
NC1=N[C@@](c2cc(NC(=O)CC(F)(F)F)ccc2F)(C(F)F)[C@H]2C[C@H]2O1 [Example 251, N-(3-((1R,5S,6R)-3-amino-5-(difluoromethyl)-2-oxa-4-azabicyclo[4.1.0]hept-3-en-5-yl)-4-fluorophenyl)-3,3,3-trifluoropropanamide] | 2 µM | 190 µM | 4.7 µM
NC1=N[C@@](c2cc(NC(=O)c3nn(C(F)F)cc3Cl)cc(F)c2F)(C(F)F)[C@H]2C[C@H]2O1 (stereo in doubt) [Example 110, N-(3-((1R,5S,6R)-3-amino-5-(difluoromethyl)-2-oxa-4-azabicyclo[4.1.0]hept-3-en-5-yl)-4,5-difluorophenyl)-4-chloro-1-(difluoromethyl)-1H-pyrazole-3-carboxamide] | > 17.4 µM | 1480 µM | 26.2 µM
CC(C)n1cc(Cl)c(C(=O)Nc2ccc(F)c([C@@]3(C(F)F)N=C(N)O[C@@H]4C[C@@H]43)c2)n1 [Example 161, N-(3-((1R,5S,6R)-3-amino-5-(difluoromethyl)-2-oxa-4-azabicyclo[4.1.0]hept-3-en-5-yl)-4-fluorophenyl)-4-chloro-1-isopropyl-1H-pyrazole-3-carboxamide] | > 15.6 µM | 295 µM | > 40 µM
NC1=N[C@@](c2cc(NC(=O)c3csc(Cl)c3)ccc2F)(C(F)F)[C@H]2C[C@H]2O1 [Example 181, N-(3-((1R,5S,6R)-3-amino-5-(difluoromethyl)-2-oxa-4-azabicyclo[4.1.0]hept-3-en-5-yl)-4-fluorophenyl)-5-chlorothiophene-3-carboxamide] | 1.14 µM | 580 µM | 1.4 µM
COc1cnc(C(=O)Nc2ccc(F)c([C@@]3(C(F)F)N=C(N)O[C@@H]4C[C@@H]43)c2)c(C)c1 [Example 131, N-(3-((1R,5S,6R)-3-amino-5-(difluoromethyl)-2-oxa-4-azabicyclo[4.1.0]hept-3-en-5-yl)-4-fluorophenyl)-5-methoxy-3-methylpicolinamide] | 0.0809 µM | 342 µM | 0.185 µM
NC1=N[C@@](c2cc(NC(=O)C3(c4ccc(Cl)cc4)CCC3)ccc2F)(C(F)F)[C@H]2C[C@H]2O1 [Example 246, N-(3-((1R,5S,6R)-3-amino-5-(difluoromethyl)-2-oxa-4-azabicyclo[4.1.0]hept-3-en-5-yl)-4-fluorophenyl)-1-(4-chlorophenyl) cyclobutanecarboxamide] | > 15.6 µM | 324 µM | > 40 µM
COc1cnc(C(=O)Nc2ccc(F)c([C@]3(C(F)F)N=C(N)O[C@H]4C[C@H]43)c2)c(C)n1 (racemic) [Example 58, N-(3-([1(R,S),5(S,R),6(R,S)]-3-amino-5-(difluoromethyl)-2-oxa-4-azabicyclo[4.1.0]hept-3-en-5-yl)-4-fluorophenyl)-5-methoxy-3-methylpyrazine-2-carboxamide] | 0.179 µM | 822 µM | 0.158 µM
NC1=N[C@](CF)(c2cc(Nc3ncnc4cc(Cl)cnc34)ccc2F)[C@H]2C[C@H]2O1 [Example 347, (1R,5S,6R)-5-(5-((7-chloropyrido[3,2-d]pyrimidin-4-yl)amino)-2-fluorophenyl)-5-(fluoromethyl)-2-oxa-4-azabicyclo[4.1.0]hept-3-en-3-amine] | 0.0624 µM | 106 µM | 0.133 µM
C[C@@H](Nc1ccc(F)c([C@@]2(C(F)F)N=C(N)O[C@@H]3C[C@@H]32)c1)c1ccc(Cl)cn1 (mixture of isomers) [Example 378, (1R,5S,6R)-5-(5-(((R)-1-(5-chloropyridin-2-yl)ethyl)amino)-2-fluorophenyl)-5-(difluoromethyl)-2-oxa-4-azabicyclo[4.1.0]hept-3-en-3-amine and (1R,5S,6R)-5-(5-(((S)-1-(5-chloropyridin-2-yl)ethyl)amino)-2-fluorophenyl)-5-(difluoromethyl)-2-oxa-4-azabicyclo[4.1.0]hept-3-en-3-amine] | 2.13 µM | 77.4 µM | 13.8 µM

Now those with a lower IC50 (BACE), led by results:

IC50 (BACE) | IC50 (Cathepsin D (Cat D)) | IC50 [1] | Compound
0.0199 µM | 494 µM | 0.0256 µM | Cc1cc(NC(=O)c2ncc(Cl)cc2Cl)cc([C@@]2(C(F)F)N=C(N)O[C@@H]3C[C@@H]32)c1F [Example 135, N-(3-((1R,5S,6R)-3-amino-5-(difluoromethyl)-2-oxa-4-azabicyclo[4.1.0]hept-3-en-5-yl)-4-fluoro-5-methylphenyl)-3,5-dichloropicolinamide]
0.0033 µM | 51.1 µM | 0.0027 µM | C#CCOc1cnc(C(=O)Nc2ccc(Cl)c([C@@]3(C(F)F)N=C(N)O[C@@H]4C[C@@H]43)c2)cn1 [Example 221, N-(3-((1R,5S,6R)-3-amino-5-(difluoromethyl)-2-oxa-4-azabicyclo[4.1.0]hept-3-en-5-yl)-4-chlorophenyl)-5-(prop-2-yn-1-yloxy)pyrazine-2-carboxamide]
0.0387 µM | 421 µM | 0.0743 µM | Cc1cc(C#N)cnc1C(=O)Nc1cc(F)c(C)c([C@@]2(C(F)F)N=C(N)O[C@@H]3C[C@@H]32)c1 (racemic) [Example 309, N-(3-(((1R,S),(5S,R),(6R.S))-3-amino-5-(difluoromethyl)-2-oxa-4-azabicyclo[4.1.0]hept-3-en-5-yl)-5-fluoro-4-methylphenyl)-5-cyano-3-methylpicolinamide]
0.0279 µM | 159 µM | 0.04 µM | Cc1cc(C(F)(F)F)cnc1C(=O)Nc1ccc(F)c([C@@]2(C(F)F)N=C(N)O[C@@H]3C[C@@H]32)c1 [Example 188, N-(3-((1R,5S,6R)-3-amino-5-(difluoromethyl)-2-oxa-4-azabicyclo[4.1.0]hept-3-en-5-yl)-4-fluorophenyl)-3-methyl-5-(trifluoromethyl) picolinamide]
0.027 µM | 1230 µM | 0.143 µM | COc1cnc(C(=O)Nc2ccc(F)c([C@@]3(CF)N=C(N)O[C@@H]4C[C@@H]43)c2)cn1 [Example 194, N-(3-((1R,5S,6R)-3-amino-5-(fluoromethyl)-2-oxa-4-azabicyclo[4.1.0]hept-3-en-5-yl)-4-fluorophenyl)-5-methoxypyrazine-2-carboxamide]
0.031 µM | 1270 µM | 0.29 µM | NC1=N[C@](CF)(c2cc(NC(=O)c3ccc(F)cn3)ccc2Cl)[C@H]2C[C@H]2O1 [Example 445, N-(3-((1R,5S,6R)-3-amino-5-(fluoromethyl)-2-oxa-4-azabicyclo[4.1.0]hept-3-en-5-yl)-4-chlorophenyl)-5-fluoropicolinamide]
0.0105 µM | 2260 µM | 0.0469 µM | N#Cc1cnc(C(=O)Nc2ccc(F)c([C@]3(CF)N=C(N)O[C@H]4C[C@H]43)c2)c(Cl)c1 (racemic) [Example 227, N-(3-((1(R,S),5(S,R),6(R,S))-3-amino-5-(fluoromethyl)-2-oxa-4-azabicyclo[4.1.0]hept-3-en-5-yl)-4-fluorophenyl)-3-chloro-5-cyanopicolinamide]
0.025 µM | 465 µM | 0.189 µM | Cc1c(C(=O)Nc2ccc(F)c([C@@]3(CF)N=C(N)O[C@@H]4C[C@@H]43)c2)nc2ccc(Cl)cn12 [Example 200, N-(3-((1R,5S,6R)-3-amino-5-(fluoromethyl)-2-oxa-4-azabicyclo[4.1.0]hept-3-en-5-yl)-4-fluorophenyl)-6-chloro-3-methylimidazo[1,2-a]pyridine-2-carboxamide]
0.0546 µM | > 44.4 µM | 0.0949 µM | N#Cc1cnc2c(Nc3ccc(F)c([C@@]4(CF)N=C(N)O[C@@H]5C[C@@H]54)c3)ncc(F)c2c1 [Example 343, 8-((3-((1R,5S,6R)-3-amino-5-(fluoromethyl)-2-oxa-4-azabicyclo[4.1.0]hept-3-en-5-yl)-4-fluorophenyl)amino)-5-fluoro-1,7-naphthyridine-3-carbonitrile]
